For assay [1], the system named is rat VM E14.5 precursor cultures. The assay is described as follows: TH immunostaining, number of TH+ cells in VM precursor cultures. It is filed as cell-based. Particulars: for dose of maximal effect / optimal dose to increase TH+ cell numbers: dose-response in E14.5 VM precursors; for increase in the number of TH positive cells (maximal effect): rat VM E14.5 precursor cultures, three days in vitro, at 3-5 μM I3M, 15 μM KP. As for the experimental part:
(§1) E14.5 VMs obtained from time-mated Sprague-Dawley rats (ethical approval for animal experimentation was granted by Stockholms Norra Djurförsöks Etiska Nämnd) were dissected, mechanically dissociated, and plated at a final density of 1×10^5 cells per cm2 on poly-D-lysine coated plates (Falcon) in serum-free N2 medium, consisting of a 1:1 mixture of F12 and MEM (Invitrogen) with 5 μg/ml insulin, 100 μg/ml transferrin, 100 μM putrescine, 20 nM progesterone, 30 nM selenium, 6 mg/ml glucose and 1 mg/ml BSA (all purchased from Sigma). Cultures were kept three days in vitro, in a 37° C. incubator, at 5% CO2, before fixation. MN9D and SN4741 cells were grown as described in Choi et al., 1991 and Son et al., 1999. MN9D cultures were fixed after four days in vitro. I3M and KP (Alexis Biochemicals, Göteborg, Sweden) were diluted in DMSO and added to the cultures at the time of plating. […] 10 μM BrdU was added to the culture media 6 hours prior to fixation.
(§2) Cells were fixed in ice-cold 4% paraformaldehyde for 20 minutes and washed in PBS. For a detailed protocol of immunocytochemistry, see Castelo-Branco et al., 2003 (7). The following primary and secondary antibodies were used: mouse α-TH (1:1000 dilution—Immunostar), rabbit α-TH (1:250-Pelfreeze), mouse α-β-III-tubulin (1:1000-Promega), rabbit α.Nurr1 (1:1000-Santa Cruz), mouse α-MAP2 (1:200—Sigma), rabbit A-GFAP (1:400-Dako), mouse α.active-caspase III (1:100-Cell Signaling), mouse α-BrdU (1:100-Dako) and rat α.BrdU (1:100-Abcam), biotinylated 1:500, Cyanine-2 or rhodamine-coupled horse-α-mouse IgG 1:200 or goat α-rabbit IgG 1:200, from Vector and Jackson Laboratories). At the end of the staining procedure, the cultures were incubated with Hoechst 33258 reagent for 10 minutes. BrdU immunocytochemistry included an incubation for 30 minutes with 2NHCL. Images were acquired from stained cells in PBS at room temperature with a Zeiss Axioplan 100M microscope (LD Achrostigmat 20×, 0.3 PH1. 0-2 and LD Achroplan 40×, 0.60 Korr PH2. 0-2) and collected with a Hamamatsu camera C4742-95 (with QED imaging software).
(§3) Quantitative immunocytochemical data represent the means±standard errors of counts from ten non-overlapping fields, in three wells per condition from three to five separate experiments. For the RT-PCR experiments, five separate experiments were analysed and for the GSK-3β inhibitors dose response, two sets of experiments were analysed. Statistical analysis was performed in Prism 4 (GraphPad software, San Diego, USA) as described in the figure legends, with […] significance for all tests assumed at the level of p<0.05 (*p<0.05; **0.01<p<0.001; ***p<0.001). Statistical tests were chosen according to the distribution of the sample population.

Assay [2] deals with T1, GSK-3β (Mus musculus, UniProt Q9WV60).
T1 construct: treatment of a DA precursor cell line derived from the substantia nigra, SN4741 (21) with KP or I3M led to a downregulation of GSK-3β protein levels; endogenous in cells; host or cells: SN4741 cells
T1 sequence (Q9WV60 whole entry): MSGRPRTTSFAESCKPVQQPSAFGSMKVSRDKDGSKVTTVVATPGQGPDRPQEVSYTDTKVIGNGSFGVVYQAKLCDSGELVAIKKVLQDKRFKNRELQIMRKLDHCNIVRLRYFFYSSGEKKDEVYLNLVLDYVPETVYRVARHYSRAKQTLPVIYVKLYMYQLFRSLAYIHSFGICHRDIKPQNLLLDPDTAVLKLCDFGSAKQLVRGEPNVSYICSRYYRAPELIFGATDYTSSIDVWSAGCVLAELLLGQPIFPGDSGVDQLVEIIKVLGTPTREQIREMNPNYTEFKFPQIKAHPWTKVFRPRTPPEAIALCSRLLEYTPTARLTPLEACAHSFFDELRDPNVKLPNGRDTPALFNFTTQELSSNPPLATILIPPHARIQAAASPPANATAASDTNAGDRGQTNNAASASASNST
The assay is described as follows: Immunoblotting of GSK-3β protein levels in SN4741 cells. As to conditions: 15 μM KP and 5 μM I3M for 24 hours. The format is cell-based. As for the experimental part:
as §1
(§4) Cell were lysed for 15 min in a modified RIPA buffer containing 20 mM Tris (pH 7.5), 140 mM NaCl, 10% glycerol, 1% IGEPAL, 1 mM β-glycerol-phosphate, 1 mM Na3VO4 and complete protease inhibitors (Roche). Plates were scraped and the cell lysate was centrifuged in a microfuge for 5 min. […] Equal amounts of protein were analysed by polyacrylamide gel electrophoresis (10% polyacrylamide). […]

Assay [3] deals with VM precursors. Description: Immunostaining for neuronal and glial differentiation (GFAP, TuJ1, MAP2, TH) of VM precursors. It is filed as cell-based, rat. Particulars: three days, 15 μM KP and 5 μM I3M. How it is done: as §1, §2, §3
The test system of assay [4] is VM precursor cultures. Description: Total cell number, proliferation (BrdU) and active Caspase 3 in VM precursor cultures. Particulars: for active Caspase 3 immunostaining: VM precursor cultures; for active Caspase 3 immunostaining / proliferation (BrdU incorporation): 15 μM KP, 5 μM I3M; for proliferation (BrdU incorporation): VM precursors, 6 h BrdU pulse; for total number of VM cells (Hoechst 33258 staining): after 3 days in culture, 15 μM KP and 5 μM I3M. It is filed as cell-based, rat. As for the experimental part: as §1, §2, §3

The test system of assay [5] is MN9D cells. The assay is described as follows: MN9D cell number, proliferation and morphological differentiation. The format is cell-based. How it is done: as §1, §2
Assay [6] has as its system c-ret mRNA. Description: Real time RT-PCR of c-ret mRNA in VM precursor cultures. Particulars: 15 μM KP, three days in vitro. The format is cell-based, rat. An excerpt: Total RNA was isolated from E14.5 VM precursor cultures (2.5×10^6 cells in 6 cm2 dishes) treated with the GSK-3β inhibitors for three days in vitro. For a description of reverse transcription reaction, real-time RT-PCR and c-ret primer sequences, see Castelo-Branco et al., 2003 (7). Quantum RNA classical 18S internal standard was purchased from Ambion (Austin, USA) and PCR primers from DNA Technology A/S, Aarhus, Denmark. The following PCR programme was used for SYBR Green detection on the ABI PRISM 5700 Detection System (PE AppliedBiosystems, Foster City, Calif., USA): 94° C. for 2 min, 35-40 cycles of 94° C. for 30 s, 59° C. for 30s, 72° C. for 15s and 80° C. for 5s. Statistical analysis of the results was performed by a 2-tailed Wilcoxon signed rank test. Significance for all tests was assumed at the level of p<0.05 (*p<0.05; **0.01<p<0.001; ***p<0.001).

For assay [7], the system named is VM Nurr1+ precursors. The assay is described as follows: TH/Nurr1 double immunostaining, conversion of Nurr1+ precursors into TH+ neurons. It is filed as cell-based, rat. As to conditions: three days after treatment with 15 μM KP. As for the experimental part:
as §1
Cells were fixed in ice-cold 4% paraformaldehyde for 20 minutes and washed in PBS. […]
Quantitative immunocytochemical data represent the means±standard errors of counts from ten non-overlapping fields, in three wells per condition from three to five separate experiments. For the RT-PCR experiments, five separate experiments were analysed and for the GSK-3β inhibitors dose response, two sets of experiments were analysed. […]

The subject of assay [8] is β-catenin. The assay is described as follows: Immunoblotting of β-catenin protein in VM precursors. As to conditions: 15 μM KP or 5 μM I3M for 24 hours. It is filed as cell-based, rat. As for the experimental part:
as §1, §4

The test system of assay [9] is TH. The assay is described as follows: Immunoblotting of TH protein in VM precursors. Particulars: 15 μM KP or 5 μM I3M for 24 hours. The format is cell-based, rat. As for the experimental part: as §1, §4
Assay [10] has as its system GSK-3β and CDKs. As to conditions: at 3-5 μM I3M and 15 μM KP; refs (20, 13); cited from earlier work.
[11] abbreviates: MN9D cells, 15 μM KP for four days.

As to `O=C1Cc2c([nH]c3ccc(Br)cc23)-c2ccccc2N1` [KP, Kenpaullone], in assay [1], the “dose of maximal effect / optimal dose to increase TH+ cell numbers” value is 15 µM and the “increase in the number of TH positive cells (maximal effect)” value is on record as “three”. Besides, in [2], the GSK-3β protein levels result was “decreases”. Besides, in assay [3], the “immature neurons (TuJ1 positive cells/Hoechst 33258)” value is reported as “increased”, the “number of mature neurons (MAP2 positive cells/Hoechst 33258)” value is listed as “increase”, the “proportion of TH+ DA neurons (TH+/TuJ1+ cells)” value is reported as “marked increase” and the “total number of astrocytes (GFAP positive cells/Hoechst 33258)” value was “increased”. Besides, in [4], the “active Caspase 3 immunostaining” value is given as “not modified”, the “proliferation (BrdU incorporation)” value was “not affected” and the “total number of VM cells (Hoechst 33258 staining)” value is “did not change”. Also, the “morphological differentiation of MN9D cells” value in [5] (15 μM KP for four days) is reported as “induced morphological differentiation”. Further, the “neurite extension of MN9D cells” value in assay [5] (KP treatment) was “increase”. Also, in [5] (setting [11]), the “proliferation (BrdU incorporation)” value is on record as “did not alter” and the “total number of cells (Hoechst 33258)” value is listed as “did not alter”. Besides, the “c-ret mRNA levels” value in assay [6] is listed as “upregulated”. Moreover, the “increase in the number of TH/Nurr1 double positive cells” value in assay [7] turned out to be 2.5 fold. For the same molecule, the β-catenin protein levels result in [8] is recorded as “increased”. The TH protein levels entry in assay [9] was “increased”. Further, in assay [10], the “kinase selectivity at the concentrations used” value is reported as “GSK-3β selective inhibitor”.

In the case of `O=C1Nc2ccccc2/C1=C1/Nc2ccccc2/C1=N\O` [I3M, Indirubin-3-monoxime], in assay [1], the “dose of maximal effect / optimal dose to increase TH+ cell numbers” value fell in the range of 3 to 5 µM and the “increase in the number of TH positive cells (maximal effect)” value is given as “five”. In addition, the GSK-3β protein levels entry in [2] was “decreases”. In [3], the “immature neurons (TuJ1 positive cells/Hoechst 33258)” value is “increased”, the “number of mature neurons (MAP2 positive cells/Hoechst 33258)” value is “increase”, the “proportion of TH+ DA neurons (TH+/TuJ1+ cells)” value is recorded as “marked increase” and the “total number of astrocytes (GFAP positive cells/Hoechst 33258)” value is given as “increased”. Also, in assay [4], the “active Caspase 3 immunostaining” value was “reduced”, the “proliferation (BrdU incorporation)” value is “significantly decreased” and the “total number of VM cells (Hoechst 33258 staining)” value is “did not change”. Moreover, the β-catenin protein levels result in assay [8] is reported as “increased”. In addition, the TH protein levels entry in assay [9] was “increased”. Besides, the “kinase selectivity at the concentrations used” value in assay [10] was “inhibits both GSK-3β and CDKs”.
